{"source": "PubChem BioAssay (NCI)", "assay_in_all_cases": "NCI anticancer screen, dose series, 48 h", "key": {"PC-3 prostate": {"test_system": "PC-3 prostate"}, "SW-620 colon": {"test_system": "SW-620 colon"}, "A549 NSCLC": {"test_system": "A549 NSCLC"}, "NCI-H23 lung": {"test_system": "NCI-H23 lung"}, "BT-549 breast": {"test_system": "BT-549 breast"}, "HCC-2998 colon": {"test_system": "HCC-2998 colon"}, "TK-10 renal": {"test_system": "TK-10 renal"}, "HOP-62 NSCLC": {"test_system": "HOP-62 NSCLC"}, "NCI-H226 lung": {"test_system": "NCI-H226 lung"}, "RXF 393 renal": {"test_system": "RXF 393 renal"}, "NCI-H460 lung": {"test_system": "NCI-H460 lung"}, "OVCAR-5 ovarian": {"test_system": "OVCAR-5 ovarian"}, "UO-31 renal": {"test_system": "UO-31 renal"}, "CAKI-1 renal": {"test_system": "CAKI-1 renal"}, "RPMI-8226 leukemia": {"test_system": "RPMI-8226 leukemia"}, "HOP-92 NSCLC": {"test_system": "HOP-92 NSCLC"}, "MCF7 breast": {"test_system": "MCF7 breast"}, "SF-295 CNS": {"test_system": "SF-295 CNS"}, "COLO 205 colon": {"test_system": "COLO 205 colon"}, "MOLT-4 leukemia": {"test_system": "MOLT-4 leukemia"}, "NCI-H522 lung": {"test_system": "NCI-H522 lung"}, "SF-268 CNS": {"test_system": "SF-268 CNS"}, "MDA-MB-435": {"test_system": "MDA-MB-435"}, "OVCAR-4 ovarian": {"test_system": "OVCAR-4 ovarian"}, "SK-MEL-5 melanoma": {"test_system": "SK-MEL-5 melanoma"}, "ACHN renal": {"test_system": "ACHN renal"}, "SNB-75 CNS": {"test_system": "SNB-75 CNS"}, "SNB-19 CNS": {"test_system": "SNB-19 CNS"}, "HCT-15 colon": {"test_system": "HCT-15 colon"}}, "note": "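Dose response: 5 concentrations. Exposure: 48 h. Format: 96-well plates. Endpoint: linear interpolation; highest concentration if not reached. GI50 is the concentration that inhibits growth by half. Definition used: TGI = concentration required for complete inhibition of growth.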"}
{"smiles": "O=C(c1ccccc1)c1ccc(Oc2ccc([N+](=O)[O-])cc2[N+](=O)[O-])cc1", "values": [{"measurement": "GI50", "setting": "PC-3 prostate", "value": 5.66, "unit": "µM"}, {"measurement": "TGI", "setting": "PC-3 prostate", "value": "> 100", "unit": "µM"}, {"measurement": "GI50", "setting": "SW-620 colon", "value": 4.36, "unit": "µM"}, {"measurement": "TGI", "setting": "SW-620 colon", "value": 23.7, "unit": "µM"}, {"measurement": "GI50", "setting": "A549 NSCLC", "value": 19.7, "unit": "µM"}, {"measurement": "TGI", "setting": "A549 NSCLC", "value": 59.7, "unit": "µM"}, {"measurement": "GI50", "setting": "NCI-H23 lung", "value": 4.33, "unit": "µM"}, {"measurement": "TGI", "setting": "NCI-H23 lung", "value": 54.9, "unit": "µM"}, {"measurement": "GI50", "setting": "BT-549 breast", "value": 3.75, "unit": "µM"}, {"measurement": "TGI", "setting": "BT-549 breast", "value": 40.3, "unit": "µM"}, {"measurement": "GI50", "setting": "HCC-2998 colon", "value": 11.4, "unit": "µM"}, {"measurement": "TGI", "setting": "HCC-2998 colon", "value": 25.3, "unit": "µM"}, {"measurement": "GI50", "setting": "TK-10 renal", "value": 8.33, "unit": "µM"}, {"measurement": "TGI", "setting": "TK-10 renal", "value": "> 100", "unit": "µM"}, {"measurement": "GI50", "setting": "HOP-62 NSCLC", "value": 7.81, "unit": "µM"}, {"measurement": "TGI", "setting": "HOP-62 NSCLC", "value": 43.1, "unit": "µM"}, {"measurement": "GI50", "setting": "NCI-H226 lung", "value": 2.52, "unit": "µM"}, {"measurement": "TGI", "setting": "NCI-H226 lung", "value": 8.57, "unit": "µM"}, {"measurement": "GI50", "setting": "RXF 393 renal", "value": 3.32, "unit": "µM"}, {"measurement": "TGI", "setting": "RXF 393 renal", "value": 11.8, "unit": "µM"}, {"measurement": "GI50", "setting": "NCI-H460 lung", "value": 8.62, "unit": "µM"}, {"measurement": "TGI", "setting": "NCI-H460 lung", "value": 33.3, "unit": "µM"}, {"measurement": "GI50", "setting": "OVCAR-5 ovarian", "value": 3.43, "unit": "µM"}, {"measurement": "TGI", "setting": "OVCAR-5 ovarian", "value": 24.1, "unit": "µM"}, {"measurement": "GI50", "setting": "UO-31 renal", "value": 2.05, "unit": "µM"}, {"measurement": "TGI", "setting": "UO-31 renal", "value": 7.76, "unit": "µM"}, {"measurement": "GI50", "setting": "CAKI-1 renal", "value": 2.29, "unit": "µM"}, {"measurement": "TGI", "setting": "CAKI-1 renal", "value": 5.52, "unit": "µM"}, {"measurement": "GI50", "setting": "RPMI-8226 leukemia", "value": 2.56, "unit": "µM"}, {"measurement": "TGI", "setting": "RPMI-8226 leukemia", "value": 7.72, "unit": "µM"}, {"measurement": "GI50", "setting": "HOP-92 NSCLC", "value": 2.87, "unit": "µM"}, {"measurement": "TGI", "setting": "HOP-92 NSCLC", "value": 9.27, "unit": "µM"}, {"measurement": "GI50", "setting": "MCF7 breast", "value": 3.71, "unit": "µM"}, {"measurement": "TGI", "setting": "MCF7 breast", "value": 19.7, "unit": "µM"}, {"measurement": "GI50", "setting": "SF-295 CNS", "value": 2.62, "unit": "µM"}, {"measurement": "TGI", "setting": "SF-295 CNS", "value": 8.51, "unit": "µM"}, {"measurement": "GI50", "setting": "COLO 205 colon", "value": 2.4, "unit": "µM"}, {"measurement": "TGI", "setting": "COLO 205 colon", "value": 5.46, "unit": "µM"}, {"measurement": "GI50", "setting": "MOLT-4 leukemia", "value": 3.08, "unit": "µM"}, {"measurement": "TGI", "setting": "MOLT-4 leukemia", "value": "> 100", "unit": "µM"}, {"measurement": "GI50", "setting": "NCI-H522 lung", "value": 2.51, "unit": "µM"}, {"measurement": "TGI", "setting": "NCI-H522 lung", "value": 6.53, "unit": "µM"}, {"measurement": "GI50", "setting": "SF-268 CNS", "value": 3.3, "unit": "µM"}, {"measurement": "TGI", "setting": "SF-268 CNS", "value": 11.9, "unit": "µM"}, {"measurement": "GI50", "setting": "MDA-MB-435", "value": 1.82, "unit": "µM"}, {"measurement": "TGI", "setting": "MDA-MB-435", "value": 3.98, "unit": "µM"}, {"measurement": "GI50", "setting": "OVCAR-4 ovarian", "value": 4.18, "unit": "µM"}, {"measurement": "TGI", "setting": "OVCAR-4 ovarian", "value": 87.4, "unit": "µM"}, {"measurement": "GI50", "setting": "SK-MEL-5 melanoma", "value": 2.02, "unit": "µM"}, {"measurement": "TGI", "setting": "SK-MEL-5 melanoma", "value": 4.42, "unit": "µM"}, {"measurement": "GI50", "setting": "ACHN renal", "value": 3.72, "unit": "µM"}, {"measurement": "TGI", "setting": "ACHN renal", "value": 13.6, "unit": "µM"}, {"measurement": "GI50", "setting": "SNB-75 CNS", "value": 5.62, "unit": "µM"}, {"measurement": "TGI", "setting": "SNB-75 CNS", "value": 26.7, "unit": "µM"}, {"measurement": "GI50", "setting": "SNB-19 CNS", "value": 7.74, "unit": "µM"}, {"measurement": "TGI", "setting": "SNB-19 CNS", "value": 34.2, "unit": "µM"}, {"measurement": "GI50", "setting": "HCT-15 colon", "value": 3.48, "unit": "µM"}]}
